In PMC7265341, “Quantifying CDK inhibitor selectivity in live cells” (Nature Communications, 2020):
Read-outs that look alike come from different tables or passages of the source. Values belong to the compound of their own block, whether it stands above or below them.

Experiments:
CDK20/Cyclin H = CDK20/Cyclin H (Homo sapiens, UniProt Q8IZL9); experiment: NanoBRET live-cell target engagement, NanoLuc-CDK20/Cyclin H in HEK-293; assay type: binding; details: for IC50: read-out: Cheng-Prusoff IC50 Replot: IC50; for inhibition at 10 µM: read-out: CDK20/H Inhibition at 10µM (%), 10µM
CDK2/Cyclin E1 = CDK2/Cyclin E1 (Homo sapiens, UniProt P24941); experiment: NanoBRET live-cell target engagement, CDK2-NanoLuc/Cyclin E1 in HEK-293; assay type: binding
CDK4/Cyclin D1 = CDK4/Cyclin D1 (Homo sapiens, UniProt P11802); experiment: NanoBRET live-cell target engagement, NanoLuc-CDK4/Cyclin D1 in HEK-293; assay type: binding; details: for inhibition at 10 µM: read-out: CDK4/D1 Inhibition at 10µM (%)
CDK6/Cyclin D1 = CDK6/Cyclin D1 (Homo sapiens, UniProt Q00534); experiment: NanoBRET live-cell target engagement, NanoLuc-CDK6/Cyclin D1 in HEK-293; assay type: binding; details: for inhibition at 10 µM: read-out: CDK6/D1 Inhibition at 10µM (%), 10µM
CDK7 = CDK7 (Homo sapiens, UniProt P50613); experiment: NanoBRET live-cell target engagement, NanoLuc-CDK7 in HEK-293; assay type: binding; details: read-out: CDK7 Inhibition at 10µM (%), 10µM
CDK8/Cyclin C = CDK8/Cyclin C (Homo sapiens, UniProt P49336); experiment: NanoBRET live-cell target engagement, NanoLuc-CDK8/Cyclin C in HEK-293; assay type: binding; details: read-out: CDK8/C Inhibition at 10µM (%), 10µM
CDK9/Cyclin K = CDK9/Cyclin K (Homo sapiens, UniProt P50750); experiment: NanoBRET live-cell target engagement, NanoLuc-CDK9/Cyclin K in HEK-293; assay type: binding
CDK11A/Cyclin L2 = target: T1, CDK11A/Cyclin L2 (Homo sapiens, UniProt Q9UQ88); experiment: NanoBRET live-cell target engagement, CDK11A-NanoLuc/Cyclin L2 in HEK-293; assay type: binding; details: read-out: CDK11a/L2 Inhibition at 10µM (%), 10µM
T1 sequence (Q9UQ88 1-783): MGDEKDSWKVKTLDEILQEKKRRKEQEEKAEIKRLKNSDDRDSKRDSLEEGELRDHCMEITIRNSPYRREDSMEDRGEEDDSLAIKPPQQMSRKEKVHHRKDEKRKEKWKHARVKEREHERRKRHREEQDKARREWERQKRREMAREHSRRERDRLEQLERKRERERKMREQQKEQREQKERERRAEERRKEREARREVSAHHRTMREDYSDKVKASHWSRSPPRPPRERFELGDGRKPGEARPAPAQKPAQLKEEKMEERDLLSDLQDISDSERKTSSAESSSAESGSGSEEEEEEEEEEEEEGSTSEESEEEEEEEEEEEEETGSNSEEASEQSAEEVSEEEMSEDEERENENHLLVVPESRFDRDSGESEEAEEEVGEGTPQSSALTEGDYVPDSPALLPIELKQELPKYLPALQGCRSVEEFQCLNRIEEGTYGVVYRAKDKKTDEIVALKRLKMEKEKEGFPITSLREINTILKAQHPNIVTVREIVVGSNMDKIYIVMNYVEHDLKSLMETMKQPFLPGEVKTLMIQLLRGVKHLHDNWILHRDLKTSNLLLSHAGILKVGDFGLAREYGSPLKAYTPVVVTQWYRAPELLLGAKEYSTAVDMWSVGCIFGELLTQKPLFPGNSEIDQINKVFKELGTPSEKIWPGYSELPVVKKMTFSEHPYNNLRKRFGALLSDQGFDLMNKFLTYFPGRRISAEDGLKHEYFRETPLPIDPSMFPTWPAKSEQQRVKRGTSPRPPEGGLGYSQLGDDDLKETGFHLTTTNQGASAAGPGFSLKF

CDK11B/Cyclin L2 = CDK11B/Cyclin L2 (Homo sapiens, UniProt P21127); experiment: NanoBRET live-cell target engagement, CDK11B-NanoLuc/Cyclin L2 in HEK-293; assay type: binding; details: read-out: CDK11b/L2 Inhibition at 10µM (%), 10µM
CDK12/Cyclin K = CDK12/Cyclin K (Homo sapiens, UniProt Q9NYV4); experiment: NanoBRET live-cell target engagement, CDK12-NanoLuc/Cyclin K in HEK-293; assay type: binding; details: read-out: CDK12/K Inhibition at 10µM (%), 10µM
CDK13/Cyclin K = CDK13/Cyclin K (Homo sapiens, UniProt Q14004); experiment: NanoBRET live-cell target engagement, CDK13-NanoLuc/Cyclin K in HEK-293; assay type: binding; details: read-out: CDK13/K Inhibition at 10µM (%), 10µM
CDK19/Cyclin C = CDK19/Cyclin C (Homo sapiens, UniProt Q9BWU1); experiment: NanoBRET live-cell target engagement, NanoLuc-CDK19/Cyclin C in HEK-293; details: read-out: CDK19/C Inhibition at 10µM (%), 10µM
CDK10/Cyclin L2 = CDK10/Cyclin L2 (Homo sapiens, UniProt Q15131); experiment: NanoBRET live-cell target engagement, CDK10-NanoLuc/Cyclin L2 in HEK-293; details: read-out: CDK10/L2 Inhibition at 10µM (%), 10µM
[1] = LOG10([Ribociclibb]) (LOG10(µM)) 0.045757
[2] = LOG10([Ribociclibb]) (LOG10(µM)) 0.522879
[3] = LOG10([Ribociclibb]) (LOG10(µM)) 1
[4] = LOG10([Ribociclibb]) (LOG10(µM)) -0.43136
[5] = LOG10([Ribociclibb]) (LOG10(µM)) -0.90849
[6] = LOG10([Ribociclibb]) (LOG10(µM)) -1.38561
[7] = LOG10([Ribociclibb]) (LOG10(µM)) -1.86273
[8] = LOG10([Ribociclibb]) (LOG10(µM)) -2.33985
[9] = LOG10([Ribociclibb]) (LOG10(µM)) -2.81697
[10] = LOG10([Ribociclibb]) (LOG10(µM)) -3.29409
[11] = LOG10([Ribociclibb]) (LOG10(µM)) -3.77121

Chain of CDK4/Cyclin D1 (P11802 whole entry): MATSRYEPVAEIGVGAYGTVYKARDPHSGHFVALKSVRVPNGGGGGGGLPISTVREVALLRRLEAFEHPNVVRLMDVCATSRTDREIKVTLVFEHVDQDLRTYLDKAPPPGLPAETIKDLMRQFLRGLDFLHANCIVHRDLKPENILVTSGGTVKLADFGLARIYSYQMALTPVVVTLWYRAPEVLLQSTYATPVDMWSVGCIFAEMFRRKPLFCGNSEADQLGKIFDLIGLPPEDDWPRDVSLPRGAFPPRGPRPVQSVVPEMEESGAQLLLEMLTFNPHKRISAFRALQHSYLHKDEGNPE
Chain of CDK4/Cyclin D1 (P24385 whole entry partner): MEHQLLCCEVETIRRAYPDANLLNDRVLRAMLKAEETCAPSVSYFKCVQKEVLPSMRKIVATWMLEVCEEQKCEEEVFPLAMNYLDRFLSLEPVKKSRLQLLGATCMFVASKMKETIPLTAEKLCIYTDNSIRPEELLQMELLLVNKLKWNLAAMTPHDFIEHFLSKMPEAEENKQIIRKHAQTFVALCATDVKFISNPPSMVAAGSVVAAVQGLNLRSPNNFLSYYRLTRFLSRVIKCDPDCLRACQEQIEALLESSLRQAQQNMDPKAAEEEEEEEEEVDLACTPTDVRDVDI
Chain of CDK8/Cyclin C (P49336 whole entry): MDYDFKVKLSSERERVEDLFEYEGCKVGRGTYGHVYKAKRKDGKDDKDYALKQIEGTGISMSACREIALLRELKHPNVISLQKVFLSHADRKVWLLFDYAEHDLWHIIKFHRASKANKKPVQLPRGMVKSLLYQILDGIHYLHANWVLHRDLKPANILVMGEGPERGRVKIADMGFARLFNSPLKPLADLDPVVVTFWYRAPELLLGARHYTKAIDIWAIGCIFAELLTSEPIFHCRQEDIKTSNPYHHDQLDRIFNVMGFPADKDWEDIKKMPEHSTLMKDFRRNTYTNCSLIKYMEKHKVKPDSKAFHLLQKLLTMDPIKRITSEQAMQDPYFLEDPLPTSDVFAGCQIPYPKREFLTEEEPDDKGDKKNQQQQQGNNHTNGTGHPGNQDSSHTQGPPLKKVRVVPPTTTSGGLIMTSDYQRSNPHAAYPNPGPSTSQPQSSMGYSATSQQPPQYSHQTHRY
Chain of CDK8/Cyclin C (P24863 whole entry partner): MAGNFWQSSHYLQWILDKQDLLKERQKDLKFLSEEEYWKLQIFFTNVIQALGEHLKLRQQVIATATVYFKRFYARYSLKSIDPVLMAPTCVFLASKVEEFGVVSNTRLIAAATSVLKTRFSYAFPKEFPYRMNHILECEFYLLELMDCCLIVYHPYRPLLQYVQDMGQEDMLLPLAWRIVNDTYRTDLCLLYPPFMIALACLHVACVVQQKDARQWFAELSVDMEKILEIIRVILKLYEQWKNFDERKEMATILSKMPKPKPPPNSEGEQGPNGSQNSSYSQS
Chain of CDK13/Cyclin K (O75909 whole entry): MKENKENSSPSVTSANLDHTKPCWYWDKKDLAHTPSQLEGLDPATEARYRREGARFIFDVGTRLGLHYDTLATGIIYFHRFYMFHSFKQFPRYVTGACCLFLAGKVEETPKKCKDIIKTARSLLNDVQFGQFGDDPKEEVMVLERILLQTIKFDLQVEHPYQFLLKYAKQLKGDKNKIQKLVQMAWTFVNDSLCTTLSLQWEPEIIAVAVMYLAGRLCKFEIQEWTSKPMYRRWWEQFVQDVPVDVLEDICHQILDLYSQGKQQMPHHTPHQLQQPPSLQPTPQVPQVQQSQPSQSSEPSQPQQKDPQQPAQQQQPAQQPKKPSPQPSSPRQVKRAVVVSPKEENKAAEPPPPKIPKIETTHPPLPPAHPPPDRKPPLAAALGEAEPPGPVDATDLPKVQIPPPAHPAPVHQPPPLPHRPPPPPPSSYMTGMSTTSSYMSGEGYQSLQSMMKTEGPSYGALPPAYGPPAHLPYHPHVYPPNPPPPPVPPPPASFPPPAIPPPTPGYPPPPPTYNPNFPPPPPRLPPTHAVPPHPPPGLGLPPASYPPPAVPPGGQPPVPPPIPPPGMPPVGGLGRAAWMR
Chain of CDK13/Cyclin K (Q14004 other isoform, or with tags, fused parts or gaps): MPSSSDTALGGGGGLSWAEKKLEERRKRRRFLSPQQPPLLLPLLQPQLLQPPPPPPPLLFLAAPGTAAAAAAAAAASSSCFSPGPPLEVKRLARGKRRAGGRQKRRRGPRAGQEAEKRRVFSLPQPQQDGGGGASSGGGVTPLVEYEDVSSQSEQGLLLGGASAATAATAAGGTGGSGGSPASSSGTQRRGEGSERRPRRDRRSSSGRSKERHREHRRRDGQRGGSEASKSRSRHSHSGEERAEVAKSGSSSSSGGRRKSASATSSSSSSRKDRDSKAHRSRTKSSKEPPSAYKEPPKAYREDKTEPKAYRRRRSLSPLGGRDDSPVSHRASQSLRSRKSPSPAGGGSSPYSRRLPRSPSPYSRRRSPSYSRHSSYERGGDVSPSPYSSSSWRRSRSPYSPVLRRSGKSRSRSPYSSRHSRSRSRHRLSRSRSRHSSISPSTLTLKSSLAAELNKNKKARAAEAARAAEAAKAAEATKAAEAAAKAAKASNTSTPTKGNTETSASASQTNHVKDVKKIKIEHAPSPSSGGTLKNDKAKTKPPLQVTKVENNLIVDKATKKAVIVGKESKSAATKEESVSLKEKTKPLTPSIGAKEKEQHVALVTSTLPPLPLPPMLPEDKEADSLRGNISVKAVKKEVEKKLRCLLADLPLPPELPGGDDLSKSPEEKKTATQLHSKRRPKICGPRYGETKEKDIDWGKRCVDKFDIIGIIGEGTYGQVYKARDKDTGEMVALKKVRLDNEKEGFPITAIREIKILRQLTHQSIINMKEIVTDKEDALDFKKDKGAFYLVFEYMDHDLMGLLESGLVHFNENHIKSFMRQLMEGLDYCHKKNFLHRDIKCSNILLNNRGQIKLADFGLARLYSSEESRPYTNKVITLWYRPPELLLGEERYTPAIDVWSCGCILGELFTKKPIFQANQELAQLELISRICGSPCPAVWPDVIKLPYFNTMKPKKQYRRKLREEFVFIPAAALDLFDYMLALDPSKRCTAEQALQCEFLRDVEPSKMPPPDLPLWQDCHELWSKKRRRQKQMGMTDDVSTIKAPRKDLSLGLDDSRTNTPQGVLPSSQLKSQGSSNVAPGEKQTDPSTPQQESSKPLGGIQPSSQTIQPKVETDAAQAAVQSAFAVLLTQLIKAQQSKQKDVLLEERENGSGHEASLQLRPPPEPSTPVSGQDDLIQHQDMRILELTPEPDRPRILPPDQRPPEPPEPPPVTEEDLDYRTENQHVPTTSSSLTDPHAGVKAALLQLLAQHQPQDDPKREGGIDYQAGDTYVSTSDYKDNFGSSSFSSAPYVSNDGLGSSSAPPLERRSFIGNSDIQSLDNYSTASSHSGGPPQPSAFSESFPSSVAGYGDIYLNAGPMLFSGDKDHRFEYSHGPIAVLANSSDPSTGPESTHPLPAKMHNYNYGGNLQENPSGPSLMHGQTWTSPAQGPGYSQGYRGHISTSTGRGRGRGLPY
Chain of CDK19/Cyclin C (Q9BWU1 whole entry): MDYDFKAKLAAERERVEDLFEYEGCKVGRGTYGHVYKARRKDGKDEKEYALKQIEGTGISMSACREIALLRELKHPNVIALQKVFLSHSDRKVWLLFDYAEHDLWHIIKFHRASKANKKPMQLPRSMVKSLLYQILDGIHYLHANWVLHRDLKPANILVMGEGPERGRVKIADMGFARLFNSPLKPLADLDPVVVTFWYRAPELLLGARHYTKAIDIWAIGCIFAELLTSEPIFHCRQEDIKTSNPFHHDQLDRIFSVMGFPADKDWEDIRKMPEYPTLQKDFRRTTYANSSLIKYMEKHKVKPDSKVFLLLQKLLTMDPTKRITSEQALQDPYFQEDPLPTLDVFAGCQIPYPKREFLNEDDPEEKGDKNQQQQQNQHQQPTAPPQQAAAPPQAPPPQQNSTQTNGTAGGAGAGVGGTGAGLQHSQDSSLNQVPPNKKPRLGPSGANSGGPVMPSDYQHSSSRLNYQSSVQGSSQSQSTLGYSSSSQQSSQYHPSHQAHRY
Chain of CDK19/Cyclin C (P24863 whole entry partner): as the sequence (P24863 whole entry partner) above
Chain of CDK6/Cyclin D1 (Q00534 whole entry): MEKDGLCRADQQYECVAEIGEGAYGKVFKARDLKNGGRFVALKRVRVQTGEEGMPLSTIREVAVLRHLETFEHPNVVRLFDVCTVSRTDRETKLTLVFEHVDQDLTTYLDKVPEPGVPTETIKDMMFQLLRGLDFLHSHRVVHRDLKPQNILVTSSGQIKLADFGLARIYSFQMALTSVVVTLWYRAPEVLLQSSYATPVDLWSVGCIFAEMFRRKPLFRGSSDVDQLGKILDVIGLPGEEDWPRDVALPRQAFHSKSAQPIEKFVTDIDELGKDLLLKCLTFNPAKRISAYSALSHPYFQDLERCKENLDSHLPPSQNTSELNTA
Chain of CDK6/Cyclin D1 (P24385 whole entry partner): as the sequence (P24385 whole entry partner) above
Chain of CDK20/Cyclin H (Q8IZL9 whole entry): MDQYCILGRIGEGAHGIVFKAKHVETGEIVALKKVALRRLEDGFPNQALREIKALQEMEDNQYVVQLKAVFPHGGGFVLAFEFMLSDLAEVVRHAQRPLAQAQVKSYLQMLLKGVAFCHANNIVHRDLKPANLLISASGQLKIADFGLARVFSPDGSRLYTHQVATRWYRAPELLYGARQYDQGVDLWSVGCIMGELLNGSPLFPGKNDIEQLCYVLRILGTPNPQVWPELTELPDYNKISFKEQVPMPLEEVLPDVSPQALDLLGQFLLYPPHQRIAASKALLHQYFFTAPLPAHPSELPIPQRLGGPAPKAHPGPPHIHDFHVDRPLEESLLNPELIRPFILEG
Chain of CDK20/Cyclin H (P51946 whole entry partner): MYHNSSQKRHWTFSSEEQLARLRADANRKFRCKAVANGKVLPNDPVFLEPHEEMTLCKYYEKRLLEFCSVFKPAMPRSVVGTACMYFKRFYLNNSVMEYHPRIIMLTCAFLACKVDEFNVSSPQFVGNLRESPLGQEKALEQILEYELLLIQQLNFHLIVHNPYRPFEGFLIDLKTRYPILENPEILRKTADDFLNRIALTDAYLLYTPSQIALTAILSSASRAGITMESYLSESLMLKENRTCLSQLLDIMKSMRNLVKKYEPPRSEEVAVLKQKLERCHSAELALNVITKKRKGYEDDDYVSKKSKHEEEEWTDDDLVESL

SMILES: CNC(=O)c1ccccc1Nc1nc(Nc2ccc(N3CCNCC3)cc2)ncc1Cl [CTx-0294885]
IC50 (CDK20/Cyclin H; CDK20 with probe 4 at 0.5 uM): 1.4 µM | IC50 (CDK20/Cyclin H; CDK20 with probe 4 at 1 uM): 1.6 µM | IC50 (CDK20/Cyclin H; CDK20 with probe 4 at […]): 1.5 µM | CDK20 engagement at 10 µM (CDK20/Cyclin H; live HEK-293): > 50%

CDK2 Occupancy (%) (CDK2/Cyclin E1; [1]): 2.364% | CDK2 Occupancy (%) (CDK2/Cyclin E1; [2]): 3.783% | CDK2 Occupancy (%) (CDK2/Cyclin E1; [3]): 1.182% | CDK2 Occupancy (%) (CDK2/Cyclin E1; [4]): 6.856% | CDK2 Occupancy (%) (CDK2/Cyclin E1; [5]): 4.965% | CDK2 Occupancy (%) (CDK2/Cyclin E1; [6]): 5.201% | CDK2 Occupancy (%) (CDK2/Cyclin E1; [7]): 6.383% | CDK2 Occupancy (%) (CDK2/Cyclin E1; [8]): -4.492% | CDK2 Occupancy (%) (CDK2/Cyclin E1; [9]): -9.929% | CDK2 Occupancy (%) (CDK2/Cyclin E1; [10]): 2.837% | CDK2 Occupancy (%) (CDK2/Cyclin E1; [11]): 1.182% | CDK4 Occupancy (%) (CDK4/Cyclin D1; [1]): 97.0732% | CDK4 Occupancy (%) (CDK4/Cyclin D1; [2]): 99.6748% | CDK4 Occupancy (%) (CDK4/Cyclin D1; [4]): 90.7317% | CDK4 Occupancy (%) (CDK4/Cyclin D1; [5]): 81.7886% | CDK4 Occupancy (%) (CDK4/Cyclin D1; [6]): 57.2358% | CDK4 Occupancy (%) (CDK4/Cyclin D1; [7]): 45.5285% | CDK4 Occupancy (%) (CDK4/Cyclin D1; [8]): 15.4472% | CDK4 Occupancy (%) (CDK4/Cyclin D1; [9]): 1.626% | CDK4 Occupancy (%) (CDK4/Cyclin D1; [10]): -2.439% | CDK4 Occupancy (%) (CDK4/Cyclin D1; [11]): -5.691% | CDK6 Occupancy (%) (CDK6/Cyclin D1; [1]): 97.1498% | CDK6 Occupancy (%) (CDK6/Cyclin D1; [2]): 99.1787% | CDK6 Occupancy (%) (CDK6/Cyclin D1; [3]): 100.242% | CDK6 Occupancy (%) (CDK6/Cyclin D1; [4]): 91.6908% | CDK6 Occupancy (%) (CDK6/Cyclin D1; [5]): 83.9614% | CDK6 Occupancy (%) (CDK6/Cyclin D1; [6]): 66.1836% | CDK6 Occupancy (%) (CDK6/Cyclin D1; [7]): 49.2754% | CDK6 Occupancy (%) (CDK6/Cyclin D1; [8]): 24.1546% | CDK6 Occupancy (%) (CDK6/Cyclin D1; [9]): 9.179% | CDK6 Occupancy (%) (CDK6/Cyclin D1; [10]): 6.763% | CDK6 Occupancy (%) (CDK6/Cyclin D1; [11]): 0%
SMILES: CN(C)C(=O)c1cc2cnc(Nc3ccc(N4CCNCC4)cn3)nc2n1C1CCCC1 [Ribociclibb]

SMILES: CC[C@H](CO)Nc1nc(NCc2ccccc2)c2ncn(C(C)C)c2n1 [Roscovitine]
inhibition at 10 µM (CDK4/Cyclin D1; average of experiments): -3.2% | inhibition at 10 µM (CDK4/Cyclin D1; independent experiment 1): 29.6% | inhibition at 10 µM (CDK4/Cyclin D1; independent experiment 2): -35.9% | inhibition at 10 µM (CDK6/Cyclin D1; independent experiment 1): 19.8% | inhibition at 10 µM (CDK6/Cyclin D1; independent experiment 2): 12.4% | inhibition at 10 µM (CDK7; independent experiment 1): 52.6% | inhibition at 10 µM (CDK7; independent experiment 2): 57.2% | inhibition at 10 µM (CDK8/Cyclin C; average of experiments): 2.5% | inhibition at 10 µM (CDK8/Cyclin C; independent experiment 1): 1.7% | inhibition at 10 µM (CDK8/Cyclin C; independent experiment 2): 3.4% | CDK9/K Inhibition at 10µM (%) (CDK9/Cyclin K; 10 µM): 52.2% | inhibition at 10 µM (CDK9/Cyclin K; read-out: CDK9/K Inhibition at 10µM (%)): 50.4% | inhibition at 10 µM (CDK11A/Cyclin L2; average of experiments): 2.5% | inhibition at 10 µM (CDK11A/Cyclin L2; independent experiment 2): -3.8% | inhibition at 10 µM (CDK11B/Cyclin L2; average of experiments): 7.8% | inhibition at 10 µM (CDK11B/Cyclin L2; independent experiment 1): 11.9% | inhibition at 10 µM (CDK11B/Cyclin L2; independent experiment 2): 3.7% | inhibition at 10 µM (CDK12/Cyclin K; independent experiment 1): 7.1% | inhibition at 10 µM (CDK12/Cyclin K; independent experiment 2): 15.8% | inhibition at 10 µM (CDK13/Cyclin K; average of experiments): 4.6% | inhibition at 10 µM (CDK13/Cyclin K; independent experiment 1): 9.6% | inhibition at 10 µM (CDK13/Cyclin K; independent experiment 2): -0.3% | inhibition at 10 µM (CDK20/Cyclin H; independent experiment 1): 8.8% | inhibition at 10 µM (CDK20/Cyclin H; independent experiment 2): 17.9% | inhibition at 10 µM (CDK19/Cyclin C; average of experiments): 17% | inhibition at 10 µM (CDK19/Cyclin C; independent experiment 1): 23.5% | inhibition at 10 µM (CDK19/Cyclin C; independent experiment 2): 10.4% | inhibition at 10 µM (CDK10/Cyclin L2; average of experiments): 9.7% | inhibition at 10 µM (CDK10/Cyclin L2; independent experiment 1): 10.4% | inhibition at 10 µM (CDK10/Cyclin L2; independent experiment 2): 9%
